According to patent US12195558B2, “Targeted delivery system and methods of use therefor” (SANFORD BURNHAM PREBYS MEDICAL DISCOVERY INSTITUTE, priority 2015, dated 2025):
Bridge positions count the residues as written; N and C are the ends. Ends that are not written are not given here.

Legend:
[1] = tested on: orthotopic MCF7 breast tumors; assay: In vivo homing of intravenous FAM-labeled peptide, MCF7 tumors; parameters: species or system mice; conditions: 200 μg FAM-labeled peptide i.v., 2 hours
Experimental: (§1) FIGS. 7A and 7B are photographs depicting in vivo homing of an exemplary TT1 peptide. 200 μg of FAM-labeled TT1 (SEQ ID NO: 3) peptide or control peptide in PBS was intravenously injected to mice bearing orthotopic 4T1 (FIG. 7A) or MCF7 (FIG. 7B) breast tumors. The peptides were allowed to circulate for 2 hours and organs were collected and photographed under white (top panels) or UV (bottom panels) light. Arrows point to the tumors of TT1 (SEQ ID NO: 3)-injected mice. Note robust signal (white in black and white versions and green in color versions of the Figures) indicating homing of TT1 (SEQ ID NO: 3) peptide to the tumor in both models. H: heart; Lu: lung; Li: liver; Ki: kidney; Sp: spleen; T: tumor.

[2] = tested on: MDA-MB-231 xenografts; assay: In vivo homing of intravenous peptide, MDA-MB-231 xenografts; parameters: species or system mice; conditions: i.v.
[3] = tested on: orthotopic 4T1 breast tumors; assay: In vivo homing of intravenous FAM-labeled peptide, 4T1 tumors; parameters: species or system mice; conditions: 4T1 syngeneic tumors, 200 μg FAM-labeled peptide i.v., 2 hours
Experimental: as §1

[4] = target: NRP-1 (Homo sapiens, UniProt O14786); assay: Fluorescence polarization assay on NRP-1 (control protein); assay type: binding; conditions: NRP-1 as control protein
Description: (§2) FIGS. 4A and 4B are plots showing a comparison of the binding of LyP-1 (SEQ ID NO: 7; diamonds) and TT1 (SEQ ID NO: 3; squares) to p32 in a fluorescence polarization assay. […] NRP-1 was used as a control protein.

[5] = Aggregation of peptide-coated nanoparticles; assay type: physicochemical; conditions: peptide on nanoparticles
Description: The linear TT1 Peptide was selected for further study as a D[KLAKLAK]2 (SEQ ID NO: 42) conjugate on NWs. The CGKRK (SEQ ID NO: 6) and LyP-1 Peptides were included for comparison.

[6] = target: T1, NRP-1 b1b2 domain (Homo sapiens, UniProt O14786); assay: Binding of peptide-displaying T7 phage to NRP-1 b1b2-coated magnetic beads; conditions: 30 minutes at 37° C., p32 versus NRP-1 b1b2 beads
T1 sequence (O14786 273-586 limits assumed): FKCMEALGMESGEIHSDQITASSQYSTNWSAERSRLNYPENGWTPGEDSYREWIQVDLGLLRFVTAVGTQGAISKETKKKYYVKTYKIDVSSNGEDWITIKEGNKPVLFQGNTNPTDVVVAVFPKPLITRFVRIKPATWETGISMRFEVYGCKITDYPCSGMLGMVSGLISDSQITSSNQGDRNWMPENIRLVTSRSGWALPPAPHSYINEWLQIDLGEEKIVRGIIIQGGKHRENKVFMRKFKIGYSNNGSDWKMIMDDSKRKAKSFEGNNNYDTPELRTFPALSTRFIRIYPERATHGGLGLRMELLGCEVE
Experimental: FIG. 9 is a bar graph showing proteolytic switching of binding specificity of an exemplary TT1 peptide (SEQ ID NO: 3). T7 phage displaying an exemplary TT1 peptide (SEQ ID NO: 3) were exposed to increasing concentrations of crystalline trypsin and incubated for 30 minutes at 37° C. After treatment, phage were incubated with magnetic beads coated with either p32 (decending hatching left to right) or NRP-1 b1b2 (ascending hatching left to right) protein, followed by washes to remove unbound phage and quantitation of specifically bound phage.
(§3) Variant peptide-encoding genomic DNA of phage was sequenced and analyzed for the presence of consensus motifs. After two rounds of selection, both linear and cyclic libraries converged to contain an RGXRS (SEQ ID NO: 4) pentapeptide motif (see FIG. 2B). The binding of RGXRS (SEQ ID NO: 4)-displaying phage to p32 was specific, as these phage bound to magnetic beads coated with p32 protein and not to beads coated with ligand-binding b1b2 domain of the cell and tissue penetration receptor NRP-1 or BSA (see FIG. 3).
The p32 binding motif with consensus sequence RGXRS (SEQ ID NO: 4; i.e., the RGXRS (SEQ ID NO: 4) pentapeptide motif) contains a cryptic RGXR CendR element that can be unmasked by a tryptic cleavage. […]

[7] = tested on: 4T1 breast cancer cells; assay: In vitro binding and internalization of FAM-labeled peptide in 4T1 cells; assay type: cell-based; conditions: 100 μM FAM-labeled peptide, 1 hour at 37° C.
Experimental: (§4) FIGS. 6A and 6B are fluorescence micrographs showing internalization of CKRGARSTC (TT1; SEQ ID NO: 3) peptide in breast tumor cells in vitro. 100 μM FAM-labeled peptides were incubated with 4T1 (FIG. 6A) or MCF10 (FIG. 6B) breast cancer cells for 1 hour at 37° C. in DMEM high glucose/10% serum medium. Cells were washed, fixed, stained with anti-FITC antibody, and MITOTRACKER® (Life Technologies) or phalloidin as indicated. Scale bars: 20 μm.
(§5) The ability of the TT1 Peptide to bind to cultured breast tumor cells was tested in vitro.

[8] = tested on: MCF10 breast cancer cells; assay: In vitro binding and internalization of FAM-labeled peptide in MCF10 cells; assay type: cell-based; conditions: 100 μM FAM-labeled peptide, 1 hour at 37° C.
Experimental: as §4, §5

[9] = target: T2, p32 (Homo sapiens, UniProt Q07021); assay: Binding of peptide-displaying T7 phage to p32-coated magnetic beads; conditions: phage-displayed peptide; relative to LyP-1
T2 construct: made in house; host or cells: E. coli Rosetta-gami-2 (Novagen)
T2 sequence (Q07021 74-282): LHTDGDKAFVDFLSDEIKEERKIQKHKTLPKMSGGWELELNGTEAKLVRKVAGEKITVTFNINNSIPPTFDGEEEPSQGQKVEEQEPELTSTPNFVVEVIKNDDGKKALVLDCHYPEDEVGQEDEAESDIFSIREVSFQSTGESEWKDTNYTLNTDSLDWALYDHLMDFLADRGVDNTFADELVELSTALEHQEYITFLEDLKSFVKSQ
Experimental: FIG. 10 is a bar graph showing that the p32 binding of the RGXR(S/T) motif (SEQ ID NOs: 4 and 5) in the exemplary TT1 peptide (SEQ ID NO: 3) was not dependent on the cyclic structure and compatible with flanking sequences. Phage clones displaying the indicated peptides were incubated in p32-coated magnetic microbeads. After washing to remove non-bound phage, specifically bound phage were quantified.
Milligram quantities of recombinant His-tagged p32 protein were expressed in E. coli and coated onto Ni-NTA magnetic beads, and biopanning was performed using two T7 bacteriophage peptide libraries (cyclic Cx7C and linear X7 library).
as §3
(§6) An exemplary RGXRS (SEQ ID NO: 4) pentapeptide motif-containing peptide with the sequence CKRGARSTC (SEQ ID NO: 3) was designated as the […] and used it for further studies. Mutating any amino acid in the consensus motif of TT1 abolished the phage binding to p32. This new peptide conferred about 15-fold stronger phage binding to immobilized p32 protein than did the canonical LyP-1 peptide.

[10] = tested on: atherosclerotic plaques; assay: Homing to atherosclerotic plaques in ApoE null mice on high-fat diet; assay type: in vivo; conditions: for homing to and penetration into plaque tissue: 100 mg FAM labeled peptide i.v., one hour
Experimental: ApoE null mice that had been kept on a high-fat diet were intravenously injected with […] of the FAM labeled peptides. One hour later, the mice were perfused through the heart under anesthesia, and tissues were collected. The panels show accumulation of FAM labeled peptides visualized with UV excitation. The center two and right two panels show atherosclerotic aortas that were sectioned at the aortic root level and examined by confocal microscopy.

[11] = target: T2, p32; assay: Fluorescence polarization assay with synthetic peptides on p32; assay type: binding; conditions: for binding to p32 in fluorescence polarization assay (in words): synthetic peptides
Description: as §2
FIG. 5 is a plot showing that P32-TT1 (CKRGARSTC; SEQ ID NO: 3) and LyP-1 (SEQ ID NO: 7) peptides competed for binding to the P32 protein. […] Squares: p32-TT1; Diamonds: LyP-1; X: RPARPAR peptide (SEQ ID NO: 14).
as §6

NRP-1, sequence (O14786 22-923): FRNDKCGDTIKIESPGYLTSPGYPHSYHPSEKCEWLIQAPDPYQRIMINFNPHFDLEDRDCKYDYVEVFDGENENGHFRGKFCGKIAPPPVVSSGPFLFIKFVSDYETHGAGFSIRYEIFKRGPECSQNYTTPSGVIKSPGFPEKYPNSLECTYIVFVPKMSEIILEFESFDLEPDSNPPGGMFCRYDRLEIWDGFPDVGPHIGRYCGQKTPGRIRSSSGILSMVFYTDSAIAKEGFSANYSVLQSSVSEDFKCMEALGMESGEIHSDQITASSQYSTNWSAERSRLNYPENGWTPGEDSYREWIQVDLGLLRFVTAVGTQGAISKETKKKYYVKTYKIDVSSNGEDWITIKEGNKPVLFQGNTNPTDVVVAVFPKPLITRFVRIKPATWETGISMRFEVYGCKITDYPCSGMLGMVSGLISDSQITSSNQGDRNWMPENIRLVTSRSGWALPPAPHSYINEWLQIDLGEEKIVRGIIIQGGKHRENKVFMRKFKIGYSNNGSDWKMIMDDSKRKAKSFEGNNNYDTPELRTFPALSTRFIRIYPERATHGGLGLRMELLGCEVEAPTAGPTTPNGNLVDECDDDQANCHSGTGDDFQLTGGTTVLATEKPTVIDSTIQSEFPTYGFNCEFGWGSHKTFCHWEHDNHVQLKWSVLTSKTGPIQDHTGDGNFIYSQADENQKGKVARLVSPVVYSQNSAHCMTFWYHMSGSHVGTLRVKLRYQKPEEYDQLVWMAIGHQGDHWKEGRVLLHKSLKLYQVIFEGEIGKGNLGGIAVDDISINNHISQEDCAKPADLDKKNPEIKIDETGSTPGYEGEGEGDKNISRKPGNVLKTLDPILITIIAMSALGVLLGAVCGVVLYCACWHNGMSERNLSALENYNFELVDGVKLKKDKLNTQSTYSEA

CKRGARSTC (disulfide 1-9 (inferred)) [TT1 Peptide]
tumor homing [1]: homed to breast tumors
tumor homing ([1]; listed as TT1): robust signal
tumor homing [2]: homed to breast tumors
tumor homing [3]: homed to breast tumors
tumor homing ([3]; listed as TT1): robust signal
binding to NRP-1 in fluorescence polarization assay (in words) [4]: only background binding
aggregation of the peptide-coated nanoparticles [5]: tended to cause aggregation of the peptide-coated nanoparticles
binding specificity after exposure to trypsin [6]: affinity switching from p32 to NRP-1 b1b2
cell surface binding and internalization [7]: rapidly bound to the surface of 4T1 and MCF10 breast cancer cells and was internalized over time
cell surface binding and internalization [8]: rapidly bound to the surface of 4T1 and MCF10 breast cancer cells and was internalized over time
phage binding to immobilized p32 protein, fold stronger than the canonical LyP-1 peptide [9]: about 15 fold
homing to and penetration into plaque tissue [10]: homed to and penetrated atherosclerotic lesions
homing to and penetration into plaque tissue ([10]; listed as TT1): homed to and penetrated into plaque tissue as well as or better than LyP-1
plaque homing compared with LyP-1 peptide ([10]; ApoE null mice on high-fat diet): more robust than seen with the LyP-1 peptide
inhibition of binding of labeled TT1 to P32 by unlabeled peptide ([11]; competition, fluorescence polarization): could be inhibited
binding site on p32 ([11]; fluorescence polarization): shared the binding site on p32 with the LyP-1 peptide
affinity for p32 (in words) ([11]; method not stated at the place): high affinity for p32
binding to p32 in fluorescence polarization assay (in words) [11]: specific
binding to p32 in fluorescence polarization assay (in words) ([11]; listed as TT1): bound to p32 with a higher affinity than LyP-1
